Assay results published in US9006256B2, “Antitumor agent for thyroid cancer” (Eisai R&D Management Co., Ltd., priority 2006, dated 2015).
pIC50: −log10 of the molar value.

Assays:
[1] = test system: human medullary thyroid carcinoma cell line (TT); assay: Antitumor effect in model for subcutaneous transplantation of human medullary thyroid carcinoma cell line (TT); assay type: in vivo, nude mouse; conditions: oral, 10, 30 or 100 mg/kg, once a day, four weeks
Procedure: (§1) Human medullary thyroid carcinoma cell line (TT, purchased from ATCC) was cultured at 37° C. in RPMI1640 (containing 15% FBS) in a 5% carbon dioxide incubator to about 80% confluence, and cells were harvested with trypsin-EDTA according to a general method. The cells were suspended in a phosphate buffer to prepare 1×10^8 cells/mL suspension. 0.1 mL each of the resulting cell suspension was subcutaneously transplanted to a nude mouse at the side of its body (purchased from Charles River).
The major and minor axes of tumors were measured with Digimatic caliper (Mitsutoyo), and tumor volumes were calculated according to the following formula. Tumor Volume (TV)=Major axis of tumor (mm)×(Minor axis of tumor)^2 (mm^2)/2

[2] = test system: human medullary thyroid carcinoma cell line (TT); assay: Cell growth of human medullary thyroid carcinoma cell line (TT); assay type: cell-based; conditions: 240 h, TT cells, 10 days culture, read-out: inhibitory activity against cell growth (IC50)
Procedure: Human medullary thyroid carcinoma cell line (TT, purchased from ATCC) was suspended in RPMI1640 medium containing 15% FBS (purchased from Sigma). 0.1 mL per well of this cell suspension (3×10^4 cells/mL) was added to 96-well cell culture plate (purchased from NUNC), and cultured in a 5% CO2 incubator (37° C.) overnight. […] After cultivation, 10 μL of […] (purchased from DOJINDO) was added to each well, treated in 5% CO2 incubator (37° C.) for color development and absorbance of each well was determined with plate reader MTP-500 (Corona Electric) at measurement wavelength of 415 nm and reference wavelength of 660 nm. Percentage (%) of the absorbance of each well with the test substance was determined compared to the absorbance of well without the test substance, based on which concentration of the test substance required for inhibiting cell growth for 50% (IC50) was calculated.

Erk1/2 = Erk1/2 phosphorylation in human medullary thyroid carcinoma cell line (TT), western blotting; assay type: cell-based; conditions: TT cells, 1 hour treatment
Procedure: Human medullary thyroid carcinoma cell line (TT, purchased from ATCC) was suspended in RPMI1640 medium containing 15% FBS (purchased from Sigma). TT is a cell expressing RET where cysteine at codon 634 in the wild-type RET amino acid sequence is mutated with tryptophan (Biochemical and Biophysical Research Communications, 207, 1022-1028, 1995). Two mL of this cell suspension per well (4×10^5 cells/mL) was added to 6-well cell culture plate (purchased from FALCON), and cultured in a 5% CO2 incubator (37° C.) overnight. After cultivation, supernatant was removed from each well and 1.8 mL of RPMI1640 medium containing 15% FBS was added. […] Supernatant was removed from each well, which was then washed with 400 μL of PBS, and added with 100 μL of solubilizing buffer (50 mM Hepes (pH7.4), 150 mM NaCl, 10% (v/v) glycerol, 1% Triton X-100, 1.5 mM MgCl2, 1 mM EDTA (pH 8.0), 100 mM NaF, 1 mM PMSF, 10 μg/mL, Aprotinin, 50 μg/mL Leupeptin, 1 μg/mL Pepstatin A and 1 mM Na3VO4). Cells in this solution were harvested with a scraper and treated at 15,000 rpm and 4° C. for 15 minutes. SDS buffer was added to the supernatant and subjected to treatment at 94° C. for 5 minutes to solubilize the protein, which was then prepared to 20 μg/10 μL as a cell extract. […]

RET = target: T1, RET (Homo sapiens, UniProt P07949, C634W); assay: RET phosphorylation in tumor tissue of model for subcutaneous transplantation of TT; assay type: in vivo, nude mouse; conditions: oral, 10, 30 or 100 mg/kg; tumors resected 2, 8, 12 or 24 hours after administration
T1 construct: from tissue; host or cells: Subcutaneous TT tumour resected from nude mice (TT from ATCC, mice from Charles River)
T1 sequence (P07949 29-1114 C634W): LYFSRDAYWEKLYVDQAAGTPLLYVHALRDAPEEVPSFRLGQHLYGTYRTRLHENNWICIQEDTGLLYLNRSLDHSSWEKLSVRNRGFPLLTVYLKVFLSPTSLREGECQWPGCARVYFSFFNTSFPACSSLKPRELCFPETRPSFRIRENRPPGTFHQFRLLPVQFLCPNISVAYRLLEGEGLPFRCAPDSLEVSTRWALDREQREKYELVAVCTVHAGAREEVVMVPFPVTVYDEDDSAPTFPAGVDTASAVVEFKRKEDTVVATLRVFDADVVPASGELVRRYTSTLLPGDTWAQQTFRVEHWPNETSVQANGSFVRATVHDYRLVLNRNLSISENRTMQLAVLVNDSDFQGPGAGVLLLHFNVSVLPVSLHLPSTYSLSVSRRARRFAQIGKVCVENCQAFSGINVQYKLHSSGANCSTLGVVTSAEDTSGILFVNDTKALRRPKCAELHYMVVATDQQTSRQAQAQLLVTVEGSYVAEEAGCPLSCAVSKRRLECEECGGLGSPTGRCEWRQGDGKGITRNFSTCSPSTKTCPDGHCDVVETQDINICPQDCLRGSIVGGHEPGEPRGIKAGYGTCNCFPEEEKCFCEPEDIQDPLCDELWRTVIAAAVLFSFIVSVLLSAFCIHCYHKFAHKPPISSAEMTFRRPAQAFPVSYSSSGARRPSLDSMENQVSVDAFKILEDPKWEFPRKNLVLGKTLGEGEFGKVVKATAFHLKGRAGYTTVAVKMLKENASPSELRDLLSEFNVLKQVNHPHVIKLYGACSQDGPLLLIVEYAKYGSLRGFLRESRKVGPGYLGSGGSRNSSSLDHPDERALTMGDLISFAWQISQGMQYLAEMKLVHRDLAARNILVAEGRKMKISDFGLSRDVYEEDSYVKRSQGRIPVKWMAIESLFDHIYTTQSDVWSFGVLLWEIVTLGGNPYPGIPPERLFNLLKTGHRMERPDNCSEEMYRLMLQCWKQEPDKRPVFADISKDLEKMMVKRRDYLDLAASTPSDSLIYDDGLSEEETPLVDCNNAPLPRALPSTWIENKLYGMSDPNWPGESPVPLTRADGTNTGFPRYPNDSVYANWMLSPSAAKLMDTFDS
Procedure: as §1
Tumors were resected 2, 8, 12 or 24 hours after administration, to which solubilizing buffer (50 mM Hepes (pH7.4), 150 mM NaCl, 10% (v/v) glycerol, 1% Triton X-100, 1.5 mM MgCl2, 1 mM EDTA (pH 8.0), 100 mM NaF, 1 mM PMSF, 10 μg/mL Aprotinin, 50 μg/mL Leupeptin, 1 μg/mL Pepstatin A, 1 mM Na3VO4), 25 mM β-glycerophosphate, and phosphatase inhibitor cocktail II (SIGMA)) were added and homogenized. Treatment at 15,000 rpm and 4° C. for 15 minutes and addition of SDS buffer to the supernatant were followed by treatment at 94° C. for 5 minutes to solubilize protein to 20 μg/10 μL to prepare cell extract. The cell extract was subjected to electrophoresis and immunoblotting in the same manner as in Example 2.

[3] = test system: human medullary thyroid carcinoma cell line (TT); conditions: Journal of the National Cancer Institute, 98, 326-334, 2006; cited from earlier work
[4] = test system: NIH3T3 cells transformed with mutant RET; conditions: Cancer Research, 15, 7284-7290, 2002; cited from earlier work
[5] = test system: NIH3T3 cells transformed with mutant RET; conditions: Cancer Research, 15, 7284-7290, 2002; cited from earlier work; remark: listed apart in the source

Q: Which “antitumor effect (tumor volume)” value [1] does the source give for COc1cc2nccc(Oc3ccc(NC(=O)NC4CC4)c(Cl)c3)c2cc1C(N)=O [4-(3-chloro-4-(cyclopropylaminocarbonyl)aminophenoxy)-7-methoxy-6-quinolinecarboxamide] here?
A: dose-dependent antitumor effect

Q: What about the pIC50 [2] of the same molecule?
A: 7.11

Q: What about the “inhibition of Erk1/2 phosphorylation” value (Erk1/2) of the same molecule?
A: at a concentration similar to that for RET kinase

Q: And the “RET autophosphorylation inhibitory activity in tumor” value (RET)?
A: RET autophosphorylation inhibitory activity at the dose found to exert antitumor effect

Q: With CNC(=O)c1cc(Oc2ccc(NC(=O)Nc3ccc(Cl)c(C(F)(F)F)c3)cc2)ccn1 [BAY 43-9006] as the molecule, how does the size of tumor [3] read?
A: reduce the size of tumor

Q: For COc1cc2c(Nc3ccc(Br)cc3F)ncnc2cc1OCC1CCN(C)CC1 [ZD6474], which scaffold-independent proliferation [4] is on record?
A: suppress scaffold-independent proliferation

Q: What about the tumor formation [5] of the same molecule?
A: inhibited tumor formation
